Where only a bound is given, the exact number is not on record here.

What is called IC50 is the point on the concentration scale where inhibition reaches its midpoint.

T1 sequence (P31424 21-1203): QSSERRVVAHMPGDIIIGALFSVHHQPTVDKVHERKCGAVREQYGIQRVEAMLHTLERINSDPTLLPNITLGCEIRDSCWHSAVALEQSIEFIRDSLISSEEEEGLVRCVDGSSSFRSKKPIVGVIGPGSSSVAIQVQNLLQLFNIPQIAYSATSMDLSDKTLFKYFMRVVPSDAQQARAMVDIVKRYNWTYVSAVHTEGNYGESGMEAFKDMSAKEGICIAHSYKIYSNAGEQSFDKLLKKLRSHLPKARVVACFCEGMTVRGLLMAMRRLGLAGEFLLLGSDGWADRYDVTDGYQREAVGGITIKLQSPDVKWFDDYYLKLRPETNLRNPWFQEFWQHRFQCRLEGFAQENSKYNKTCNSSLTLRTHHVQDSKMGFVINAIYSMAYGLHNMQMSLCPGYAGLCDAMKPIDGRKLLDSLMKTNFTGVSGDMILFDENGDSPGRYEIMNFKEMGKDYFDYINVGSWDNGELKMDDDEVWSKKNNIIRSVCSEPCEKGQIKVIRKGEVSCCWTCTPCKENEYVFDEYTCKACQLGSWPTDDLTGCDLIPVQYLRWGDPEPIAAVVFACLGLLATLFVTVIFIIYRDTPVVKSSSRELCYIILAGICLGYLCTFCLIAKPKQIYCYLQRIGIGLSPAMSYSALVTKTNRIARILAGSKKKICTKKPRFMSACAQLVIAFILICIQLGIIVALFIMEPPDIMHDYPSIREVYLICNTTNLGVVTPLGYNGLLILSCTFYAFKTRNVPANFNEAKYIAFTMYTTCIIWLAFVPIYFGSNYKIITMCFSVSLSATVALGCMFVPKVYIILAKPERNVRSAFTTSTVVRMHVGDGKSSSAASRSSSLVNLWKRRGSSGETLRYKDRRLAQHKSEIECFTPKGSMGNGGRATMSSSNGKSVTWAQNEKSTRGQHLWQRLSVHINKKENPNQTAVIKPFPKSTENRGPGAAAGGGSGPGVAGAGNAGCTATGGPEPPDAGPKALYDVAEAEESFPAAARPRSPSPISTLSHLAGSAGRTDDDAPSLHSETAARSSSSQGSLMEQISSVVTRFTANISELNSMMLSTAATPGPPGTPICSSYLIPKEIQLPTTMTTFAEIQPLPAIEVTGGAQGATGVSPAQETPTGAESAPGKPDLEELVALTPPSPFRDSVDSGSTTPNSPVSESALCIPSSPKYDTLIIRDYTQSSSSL

The first assay addresses T1, recombinant rat mGluR5 (Rattus norvegicus, UniProt P31424).
T1 construct: expressed in transfected cells
Nature of the assay: Functional calcium flux assay (FLIPR), antagonist evaluation against glutamate-evoked [Ca2+]i increase. It is filed as cell-based. The conditions noted are these: Table 1; HEK293 cells stably expressing recombinant rat mGluR5; 15 min incubation of test compound, then submaximal glutamate; read-out: IC50 value (FLIPR assay). The procedure: Functional Calcium Clux Assay Methodology
For functional assays, HEK293 cells stably expressing recombinant rat mGluR5 were seeded in 384-well plates and dye loaded using Fluo-8. Cells were then washed to remove the un-incorporated dye. Antagonist evaluation was performed following a 15 min incubation of the test compound followed by the addition of submaximal concentration of glutamate. Intracellular calcium ([Ca^2+]i) measurements were performed using a fluorometric imaging plate reader (FLIPR, Molecular Devices). The glutamate-evoked increase in [Ca^2′]i in the presence of the test compounds was compared to the response to glutamate alone (the positive control). Antagonist inhibition curves were fitted with a 4-parameter logistic equation giving IC50 values, and Hill coefficients using an iterative nonlinear curve fitting algorithm.
The tables below provide IC50 data in this assay. In the activity column, A=IC50>1,000 and ≤5,000 nM; B=IC50>500 and ≤1,000 nM and C=IC50≤500 nM.
For orientation: A change in cytosolic calcium serves as a functional read-out for many receptors and channels.
On to `Fc1cncc(-n2cc(C#Cc3ccccn3)c(Cl)n2)c1` [Compound 44, 3-(3-chloro-4-(pyridin-2-ylethynyl)-1H-pyrazol-1-yl)-5-fluoropyridine], for which the IC50 is not above 0.5 µM. On to `Fc1ccc(-n2cc(C#Cc3ccccc3)cn2)cc1` [Compound 81, 1-(4-fluorophenyl)-4-(phenylethynyl)-1H-pyrazole], for which the IC50 was not above 0.5 µM. The same measure, in the same setting: the value for `N#Cc1cc(F)cc(-n2cc(C#Cc3ncccn3)c(C3CC3)n2)c1` [Compound 55, 3-(3-cyclopropyl-4-(pyrimidin-2-ylethynyl)-1H-pyrazol-1-yl)-5-fluorobenzonitrile] was not above 0.5 µM; that for `Fc1ccc(-n2cc(C#Cc3cccc(Cl)c3)cn2)cc1` [Compound 84, 4-((3-chlorophenyl)ethynyl)-1-(4-fluorophenyl)-1H-pyrazole] was not above 0.5 µM; that for `FC(F)(F)Oc1ccc(-n2cc(C#Cc3ncccn3)c(Cl)n2)cc1` [Compound 41, 2-((3-chloro-1-(4-(trifluoromethoxy)phenyl)-1H-pyrazol-4-yl)ethynyl)pyrimidine] was 1 to 5 µM. On to `COCCOc1nn(-c2ccc(OC(F)(F)F)cc2)cc1C#Cc1ccccn1` [Compound 31, 2-((3-(2-methoxyethoxy)-1-(4-(trifluoromethoxy)phenyl)-1H-pyrazol-4-yl)ethynyl)pyridine], for which the IC50 lay in the range of 1 to 5 µM. On the same count and under the same terms, with `Cc1nn(-c2ccc(F)cc2)c(C)c1C#Cc1ncccn1` [Compound 2, 2-((1-(4-fluorophenyl)-3,5-dimethyl-1H-pyrazol-4-yl)ethynyl) pyrimidine] the figure was not above 0.5 µM; with `Fc1ccc(-n2cc(C#Cc3ccccn3)cn2)cn1` [Compound 23], not above 0.5 µM; with `Cc1nn(-c2ccc(OC(F)(F)F)cc2)c(C)c1C#Cc1ccccn1` [Compound 4, 2-((3,5-dimethyl-1-(4-(trifluoromethoxy)phenyl)-H-pyrazol-4-yl)ethynyl)pyridine], not above 0.5 µM. In the case of `CN(C)CCOc1nn(-c2cc(F)cc(C#N)c2)cc1C#Cc1ccccn1` [Compound 53, 3-(3-(2-(dimethylamino)ethoxy)-4-(pyridin-2-ylethynyl)-1H-pyrazol-1-yl)-5-fluorobenzonitrile], the IC50 is 1 to 5 µM. Take `FC(F)(F)c1ccc(-n2ncc(C#Cc3ccccn3)c2Cl)cc1` [Compound 35, 2-((5-chloro-1-(4-(trifluoromethyl)phenyl)-1H-pyrazol-4-yl)ethynyl)pyridine]: the IC50 is not above 0.5 µM. `COCCOc1nn(-c2cc(F)cc(C#N)c2)cc1C#Cc1ccccn1` [Compound 32, 3-fluoro-5-(3-(2-methoxyethoxy)-4-(pyridin-2-ylethynyl)-1H-pyrazol-1-yl)benzonitrile]: the IC50 is not above 0.5 µM. Turning to `COCCOc1c(C#Cc2ccccn2)cnn1-c1ccc(F)cc1` [Compound 56], the IC50 is not above 0.5 µM. In the case of `Fc1ccc(-n2cc(C#Cc3ccnc(Cl)c3)cn2)cc1` [Compound 85, 2-chloro-4-((1-(4-fluorophenyl)-1H-pyrazol-4-yl)ethynyl)pyridine], the IC50 is not above 0.5 µM. On the same count and under the same terms, with `COc1nn(-c2ccc(F)cc2)cc1C#Cc1ccccn1` [Compound 52, 2-((1-(4-fluorophenyl)-3-methoxy-1H-pyrazol-4-yl)ethynyl)pyridine] the figure was not above 0.5 µM; with `FC(F)(F)Oc1ccc(-n2cc(C#Cc3cccc(Cl)c3)cn2)cc1` [Compound 92, 4-((3-chlorophenyl)ethynyl)-1-(4-(trifluoromethoxy)phenyl)-1H-pyrazole], not above 0.5 µM; with `CS(=O)(=O)c1ccc(-n2cc(C#Cc3ccccn3)c(Cl)n2)cc1` [Compound 58, 2-((3-chloro-1-(4-(methylsulfonyl)phenyl)-1H-pyrazol-4-yl)ethynyl)pyridine], 1 to 5 µM. In the case of `FC(F)(F)Oc1ccc(-n2cc(C#Cc3ccccc3)cn2)cc1` [Compound 89, 4-(phenylethynyl)-1-(4-(trifluoromethoxy)phenyl)-1H-pyrazole], the IC50 was 1 to 5 µM. Consider `Fc1ccc(-n2cc(C#Cc3ccncc3)cn2)cc1` [Compound 87], for which the IC50 was not above 0.5 µM. As to `COc1c(C#Cc2ccccn2)c(C)nn1-c1ccc(OC(F)(F)F)cc1` [Compound 10, 2-((3-methyl-5-methoxy-1-(4-(trifluoromethoxy)phenyl)-1H-pyrazol-4-yl)ethynyl) pyridine], the IC50 fell in the range of 1 to 5 µM. With `Fc1ccc(-n2cc(C#Cc3ncccn3)c(Cl)n2)cc1` [Compound 43, 2-((3-chloro-1-(4-fluorophenyl)-1H-pyrazol-4-yl)ethynyl)pyrimidine], the IC50 is not above 0.5 µM. As to `Fc1ccc(-n2ncc(C#Cc3ncccn3)c2Cl)cc1` [Compound 17], the IC50 was not above 0.5 µM.

For the compound `Fc1ccc(-n2ncc(C#Cc3ccccn3)c2Cl)cc1` [Compound 20], the IC50 was not above 0.5 µM.

With `COc1c(C#Cc2ccccn2)cnn1-c1ccc(F)cn1` [Compound 62, 5-fluoro-2-(5-methoxy-4-(pyridin-2-ylethynyl)-1H-pyrazol-1-yl)], the IC50 was not above 0.5 µM. The same measure, in the same setting: with `N#Cc1cc(F)cc(-n2cc(C#Cc3ncccn3)cn2)c1` [Compound 78, 3-fluoro-5-(4-(pyrimidin-2-ylethynyl)-1H-pyrazol-1-yl) benzonitrile] the figure was not above 0.5 µM; with `Cc1c(C#Cc2ccccn2)c(OC(F)F)nn1-c1cc(F)cc(C#N)c1` [Compound 37, 3-(3-(difluoromethoxy)-5-methyl-4-(pyridin-2-ylethynyl)-1H-pyrazol-1-yl)-5-fluorobenzonitrile], not above 0.5 µM. For `N#Cc1cc(F)cc(-n2cc(C#Cc3ccccn3)c(C3CC3)n2)c1` [Compound 54, 3-(3-cyclopropyl-4-(pyridin-2-ylethynyl)-1H-pyrazol-1-yl)-5-fluorobenzonitrile], the IC50 was not above 0.5 µM. As for `Cc1nn(-c2ccc(F)cc2)c(C(F)(F)F)c1C#Cc1ccccn1` [Compound 12, 2-((1-(4-fluorophenyl)-3-methyl-5-(trifluoromethyl)-1H-pyrazol-4-yl)ethyny) pyridine], the IC50 is not above 0.5 µM.

Regarding `Cc1nn(-c2ccc(F)nc2)c(C)c1C#Cc1ccccn1` [Compound 24], the IC50 was not above 0.5 µM. Still for that read-out and setting: the value for `COCCOc1nn(-c2ccc(F)cn2)cc1C#Cc1ccccn1` [Compound 64, S-fluoro-2-(3-(2-methoxyethoxy)-4-(pyridin-2-ylethynyl)-1H-pyrazol-1-yl)pyridine] was 0.5 to 1 µM. Take `Fc1ccc(-n2cc(C#Cc3ccccn3)cn2)nc1` [Compound 27, 5-fluoro-2-(4-(pyridin-2-ylethynyl)-1H-pyrazol-1-yl)pyridine]: the IC50 was not above 0.5 µM. Same read-out and setting: with `N#Cc1cc(F)cc(-n2cc(C#Cc3ncccn3)c(Cl)n2)c1` [Compound 39, 3-(3-chloro-4-(pyrimidin-2-ylethynyl)-1H-pyrazol-1-yl)-5-fluorobenzonitrile] the figure was not above 0.5 µM; with `N#Cc1cc(F)cc(-n2cc(C#Cc3cccc(Cl)c3)cn2)c1` [Compound 77, 3-fluoro-5-(4-(3-chloro-phenylethynyl)-1H-pyrazol-1-yl) benzonitrile], 0.5 to 1 µM. Regarding `N#Cc1cc(F)cc(-n2cc(C#Cc3ccccn3)c(OCCO)n2)c1` [Compound 48, 3-fluoro-5-(3-(2-hydroxyethoxy)-4-(pyridin-2-ylethynyl)-1H-pyrazol-1-yl)benzonitrile], the IC50 is not above 0.5 µM. Still for that read-out and setting: the value for `FC(F)(F)Oc1ccc(-n2ncc(C#Cc3ccccn3)c2Cl)cc1` [Compound 21] was not above 0.5 µM.

The same assay, now with this note: Table 2; HEK293 cells stably expressing recombinant rat mGluR5; 15 min incubation of test compound, then submaximal glutamate; read-out: IC50 (FLIPR assay).
In the case of `Fc1cncc(-n2ccc(C#Cc3ccccn3)n2)c1` [Compound 70, 3-fluoro-5-(3-(pyridin-2-ylethnyl)-1H-pyrazol-1-yl)pyridine], the IC50 was not above 0.5 µM. Still for that read-out and setting: the value for `N#Cc1cc(F)cc(-n2cc(Cl)c(C#Cc3ccccn3)n2)c1` [Compound 61, 3-(4-chloro-3-(pyridin-2-ylethynyl)-1H-pyrazol-1-yl)-5-fluorobenzonitrile] was not above 0.5 µM; that for `FC(F)(F)Oc1ccc(-n2ccc(C#Cc3ncccn3)n2)cc1` [Compound 123, 2-((1-(4-(trifluoromethoxy)phenyl)-1H-pyrazol-3-yl)ethynyl) pyrimidine] was 1 to 5 µM; that for `Cc1cc(C#Cc2ccccn2)nn1-c1ccc(F)cc1` [Compound 126] was not above 0.5 µM.

As to `Cc1cc(C#Cc2ccnc(Cl)c2)nn1-c1ccc(OC(F)(F)F)cc1` [Compound 135, 2-chloro-4-((5-methyl-1-(4-(trifluoromethoxy)phenyl)-1H-pyrazol-3-yl)ethynyl)pyridine], the IC50 is 1 to 5 µM. Turning to `N#Cc1cc(F)cc(-n2ccc(C#Cc3cccc(Cl)c3)n2)c1` [Compound 107, 3-(3-((3-chlorophenyl)ethynyl)-1H-pyrazol-1-yl)-5-fluorobenzonitrile], the IC50 is not above 0.5 µM. On the same count and under the same terms, the value for `N#Cc1cc(F)cc(-n2ccc(C#Cc3cccnc3)n2)c1` [Compound 106, 3-fluoro-5-(3-(pyridin-3-ylethynyl)-1H-pyrazol-1-yl)benzonitrile] was 1 to 5 µM; that for `C(#Cc1ccn(-c2ccccn2)n1)c1ccccn1` [Compound 71, 2-((1-(pyridin-2-yl)-1H-pyrazol-3-yl)ethynyl)pyridine] was not above 0.5 µM. Turning to `Cc1cc(C#Cc2ccncc2)nn1-c1ccc(F)cc1` [Compound 130, 4-((1-(4-fluorophenyl)-5-methyl-1H-pyrazol-3-yl)ethynyl) pyridine], the IC50 was not above 0.5 µM. As for `FC(F)(F)Oc1ccc(-n2ccc(C#Cc3ccncc3)n2)cc1` [Compound 124, 4-((1-(4-(trifluoromethoxy)phenyl)-1H-pyrazol-3-yl)ethynyl) pyridine], the IC50 was 1 to 5 µM.

The values are drawn from US10941132B2, “Pyrazole derivatives” (HUA MEDICINE (SHANGHAI) Ltd., priority 2016, dated 2021).
